Columns and labels:
[1] = tested on: CFY strain male rats; experiment: Systolic blood pressure of non-anaesthetized rats, measured indirectly on the tail with a cuff; assay type: in vivo; details: for Blood pressure change related to the starting (control) value, 3rd hour / Blood pressure change related to the starting (control) value, 6th hour / Blood pressure change related to the starting (control) value, 12th hour / Blood pressure change related to the starting (control) value, 18th hour / Blood pressure change related to the starting (control) value, 24th hour / Blood pressure change related to the starting (control) value, 48th hour: n 5; for dose achieving hypotension of approximately the same intensity and duration: comparison of reserpine and the racemic compound, i.p.
Procedure: The tests were carried. out on CFY strain male rats weighing 250-300 g. The systolic blood pressure was measured indirectly on the tails of the animals pressed down with the aid. of a cuff. […] The systolic blood pressure was determined by observing simultaneously the manometer and the out-signal.

[2] = tested on: CFLP strain female mice; details: mouse, in vivo
[3] = tested on: male rats weighing 300 and having hypertension; experiment: Systolic blood pressure decrease by the optically active enantiomers in hypertensive rats; assay type: in vivo; details: intraperitoneal 20 mg/kg, sixth hour following administration (maximum of the effect)
Procedure: The tests were carried. out on CFY strain male rats weighing 250-300 g. The systolic blood pressure was measured indirectly on the tails of the animals pressed down with the aid. of a cuff. When the pressure of the pressing cuff attached to a mercury manometer decreased just under the systolic pressure, the sensing head of the measuring apparatus (VP 101 microphone adapted for this purpose and placed on the tails of the rats) signalled the appearence of arterial pulsation both in acustical and visual way (oscilloscope). The systolic blood pressure was determined by observing simultaneously the manometer and the out-signal. When administering the raoemic compound intraperitoneally in doses of 10 and. […] The characteristics of the hypotensive effect of reserpine used as control are substantially the same as those of the racemic compound; hypotension of approximately the same intensity and duration can be achieved by administering 2,5 mg/kg of reserpine and 20 mg/kg of the racemic compound, respectively.
The optically active enantiomers were administered in intraperitoneal doses of 20 mg/kg to male rats weighing 300 and having hypertension. […]

[4] = 2,5 mg/kg i.p., n 5, control 117 ± 2
[5] = 5,0 mg/kg i.p., n 5, control 118 ± 2
[6] = 10 mg/kg i.p., n 5, control 115 ± 2
[7] = 20 mg/kg i.p., n 5, control 116 ± 2
[8] = intraperitoneally 10 and 20 mg/kg

In the case of COC(=O)[C@H]1[C@H]2C[C@@H]3c4[nH]c5cc(OC)ccc5c4CCN3C[C@H]2C[C@@H](OC(=O)c2cc(OC)c(OC)c(OC)c2)[C@@H]1OC [RESERPINE, reserpine, reference compound], the “Blood pressure change related to the starting (control) value, 3rd hour” value (“Blood pressure change related … 3rd hour” below) ([1]; 2,5 mg/kg i.p.) is reported as -11,11%, the “Blood pressure (Hgmm; x̄ ± S.E.) 3rd hour” value [1, 4] is reported as 104 ± 2 Hgmm and the “Blood pressure change related to the starting (control) value, 6th hour” value (from here on “Blood pressure change related … 6th hour”) ([1]; 2,5 mg/kg i.p.) is reported as -18,8%. The “Blood pressure (Hgmm; x̄ ± S.E.) 6th hour” value [1, 4] was 95 ± 2 Hgmm, the “Blood pressure change related to the starting (control) value, 12th hour” value (shortened to “Blood pressure change related … 12th hour”) ([1]; 2,5 mg/kg i.p.) was -9,4% and the “Blood pressure (Hgmm; x̄ ± S.E.) 12th hour” value [1, 4] was 106 ± 2 Hgmm. The “Blood pressure change related to the starting (control) value, 18th hour” value (“Blood pressure change related … 18th hour” for short) ([1]; 2,5 mg/kg i.p.) was -12,82%, the “Blood pressure (Hgmm; x̄ ± S.E.) 18th hour” value [1, 4] was 102 ± 1 Hgmm and the “Blood pressure change related to the starting (control) value, 24th hour” value (“Blood pressure change related … 24th hour” below) ([1]; 2,5 mg/kg i.p.) was -10,26%. For the same compound, the “Blood pressure (Hgmm; x̄ ± S.E.) 24th hour” value [1, 4] was 105 ± 3 Hgmm, the “Blood pressure change related to the starting (control) value, 48th hour” value (shortened to “Blood pressure change related … 48th hour”) ([1]; 2,5 mg/kg i.p.) was -6,48% and the “Blood pressure (Hgmm; x̄ ± S.E.) 48th hour” value [1, 4] was 109 ± 2 Hgmm. For the same compound, the “Blood pressure change related … 3rd hour” value ([1]; 5,0 mg/kg i.p.) was -15,25%, the “Blood pressure (Hgmm; x̄ ± S.E.) 3rd hour” value [1, 5] was 100 ± 5 Hgmm and the “Blood pressure change related … 6th hour” value ([1]; 5,0 mg/kg i.p.) was -19,49%. For the same compound, the “Blood pressure (Hgmm; x̄ ± S.E.) 6th hour” value [1, 5] was 95 ± 7 Hgmm, the “Blood pressure change related … 12th hour” value ([1]; 5,0 mg/kg i.p.) was -13,56% and the “Blood pressure (Hgmm; x̄ ± S.E.) 12th hour” value [1, 5] was 102 ± 1 Hgmm. For the same compound, the “Blood pressure change related … 18th hour” value ([1]; 5,0 mg/kg i.p.) was -8,47%, the “Blood pressure (Hgmm; x̄ ± S.E.) 18th hour” value [1, 5] was 108 ± 2 Hgmm and the “Blood pressure change related … 24th hour” value ([1]; 5,0 mg/kg i.p.) was -10,17%. For the same compound, the “Blood pressure (Hgmm; x̄ ± S.E.) 24th hour” value [1, 5] was 106 ± 3 Hgmm, the “Blood pressure change related … 48th hour” value ([1]; 5,0 mg/kg i.p.) was -5.93% and the “Blood pressure (Hgmm; x̄ ± S.E.) 48th hour” value [1, 5] was 111 ± 2 Hgmm. The “dose achieving hypotension of approximately the same intensity and duration” value [1] was 2,5 mg/kg, the “Time for which mice stayed on the rotating rod (average, n = 10)” value [2] was 9 ± 3,3 and the effect on coordination [2] was “roduced coordination to a very significatn extent”.
“(-)-Methyl-7,8-methylenedioxy-15-(3,4,5--trimethoxy-benzoyloxy)-14-oxo-epiallo--berbane-13-carboxylate [[(-), I]]” was tested, and the “blood-pressure decrease (average, n = 6)” value [3] was 14,8 Hgmm.
In the case of “(+)-Methyl-7,8-methylenedioxy-15-(3,4,5--trimethoxy-benzoyloxy)-l4-oxo-epiallo--berbane-13-carboxylate [[(+), I]]”, the “blood-pressure decrease (average, n = 6)” value [3] is reported as 15,6 Hgmm.
For COC(=O)[C@H]1C(=O)[C@@H](OC(=O)c2cc(OC)c(OC)c(OC)c2)C[C@@H]2CN3CCc4cc5c(cc4[C@H]3C[C@@H]21)OCO5 (racemic) [SC-T 40, Racemic methyl-7,8-methylened.ioxy-15-(3,4,5--trimethoxy-benzoyloxy)-14-oxo-epiallo--berbane-13-carboxylate], the “Blood pressure change related … 3rd hour” value ([1]; 10 mg/kg i.p.) was -4,23%, the “Blood pressure (Hgmm; x̄ ± S.E.) 3rd hour” value [1, 6] was 110 ± 2 Hgmm and the “Blood pressure change related … 6th hour” value ([1]; 10 mg/kg i.p.) was -13,88%. The “Blood pressure (Hgmm; x̄ ± S.E.) 6th hour” value [1, 6] was 99 ± 3 Hgmm, the “Blood pressure change related … 12th hour” value ([1]; 10 mg/kg i.p.) was -12,14% and the “Blood pressure (Hgmm; x̄ ± S.E.) 12th hour” value [1, 6] was 101 ± 2 Hgmm. For the same compound, the “Blood pressure change related … 18th hour” value ([1]; 10 mg/kg i.p.) was -9,53%, the “Blood pressure (Hgmm; x̄ ± S.E.) 18th hour” value [1, 6] was 104 ± 2 Hgmm and the “Blood pressure change related … 24th hour” value ([1]; 10 mg/kg i.p.) was -9,64%. The “Blood pressure (Hgmm; x̄ ± S.E.) 24th hour” value [1, 6] was 104 ± 4 Hgmm, the “Blood pressure change related … 48th hour” value ([1]; 10 mg/kg i.p.) was -9,53% and the “Blood pressure (Hgmm; x̄ ± S.E.) 48th hour” value [1, 6] was 104 ± 2 Hgmm. The “Blood pressure change related … 3rd hour” value ([1]; 20 mg/kg i.p.) was -7,98%, the “Blood pressure (Hgmm; x̄ ± S.E.) 3rd hour” value [1, 7] was 107 ± 2 Hgmm and the “Blood pressure change related … 6th hour” value ([1]; 20 mg/kg i.p.) was -19,53%. The “Blood pressure (Hgmm; x̄ ± S.E.) 6th hour” value [1, 7] was 93 ± 6 Hgmm, the “Blood pressure change related … 12th hour” value ([1]; 20 mg/kg i.p.) was -17,11% and the “Blood pressure (Hgmm; x̄ ± S.E.) 12th hour” value [1, 7] was 96 ± 2 Hgmm. The “Blood pressure change related … 18th hour” value ([1]; 20 mg/kg i.p.) was -12,76%, the “Blood pressure (Hgmm; x̄ ± S.E.) 18th hour” value [1, 7] was 101 ± 3 Hgmm and the “Blood pressure change related … 24th hour” value ([1]; 20 mg/kg i.p.) was -9,42%. The “Blood pressure (Hgmm; x̄ ± S.E.) 24th hour” value [1, 7] was 105 ± 2 Hgmm, the “Blood pressure change related … 48th hour” value ([1]; 20 mg/kg i.p.) was -4,23% and the “Blood pressure (Hgmm; x̄ ± S.E.) 48th hour” value [1, 7] was 111 ± 1 Hgmm. The “dose achieving hypotension of approximately the same intensity and duration” value [1] was 20 mg/kg, the “duration of the hypotensive effect” value [1, 8] was “still detected in the 48th hour” and the “time at which the hypotensive effect reached its maximum” value [1, 8] was “sixth hour”. The hypotensive effect ([1]; intraperitoneally 10 and 20 mg/kg, 3-6 hours after the administration) was “significant hypotensive effect”, the “Time for which mice stayed on the rotating rod (average, n = 10)” value [2] was 102 ± 12,0 and the effect on coordination [2] was “did not exhibit any effect on coordination”.

— patent EP0091185A2, “Berbane derivatives” (CHINOIN Gyogyszer és Vegyészeti Termékek Gyára RT., priority 1982, dated 1983)
